In ChEMBL document CHEMBL1142925, “Optimization and determination of the absolute configuration of a series of potent inhibitors of human papillomavirus type-11 E1-E2 protein-protein interaction: a combined medicinal chemistry, NMR and computational chemistry approach” (Bioorg Med Chem, 2007):
The source made the active and inactive calls. The calls are words filed in the database; no cut-off is given here.

How the values were obtained:
[1] = target: Large T antigen (Simian virus 40) (UniProt P03070); experiment: Inhibition of binding of SV40 large T antigen to DNA by scintillation proximity assay; details: Betapolyomavirus macacae
Sequence of Large T antigen (Simian virus 40) (P03070 whole entry): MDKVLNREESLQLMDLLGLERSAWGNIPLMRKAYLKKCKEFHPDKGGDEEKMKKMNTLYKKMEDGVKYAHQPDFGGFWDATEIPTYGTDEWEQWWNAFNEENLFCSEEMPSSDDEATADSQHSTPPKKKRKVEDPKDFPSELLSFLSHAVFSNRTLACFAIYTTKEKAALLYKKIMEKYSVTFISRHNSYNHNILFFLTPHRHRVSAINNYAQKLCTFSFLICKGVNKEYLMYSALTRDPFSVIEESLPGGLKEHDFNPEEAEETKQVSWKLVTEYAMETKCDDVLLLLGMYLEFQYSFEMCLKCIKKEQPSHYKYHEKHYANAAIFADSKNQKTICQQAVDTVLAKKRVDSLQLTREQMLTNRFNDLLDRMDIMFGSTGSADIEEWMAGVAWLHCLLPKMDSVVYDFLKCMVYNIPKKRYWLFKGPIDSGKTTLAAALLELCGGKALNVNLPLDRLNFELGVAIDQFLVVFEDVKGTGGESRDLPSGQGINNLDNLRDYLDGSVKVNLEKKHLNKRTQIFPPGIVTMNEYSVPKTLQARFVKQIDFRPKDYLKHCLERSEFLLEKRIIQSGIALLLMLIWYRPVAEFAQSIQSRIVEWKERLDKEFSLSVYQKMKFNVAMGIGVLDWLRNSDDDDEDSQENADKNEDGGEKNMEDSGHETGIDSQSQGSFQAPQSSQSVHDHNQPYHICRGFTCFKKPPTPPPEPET

[2] = Inhibition of HPV11 E1-E2 protein-protein interaction by E1-E2-ori-complex formation assay

| SMILES | Activity [1] | IC50 [2] |
| --- | --- | --- |
| O=C(Nc1ccc(N2CCOCC2)cc1)[C@H]1[C@@H](C(=O)O)C2(O[C@H]1c1ccc(Cl)c(Cl)c1)C(=O)c1ccccc1C2=O | inactive | 88 nM |
| O=C(Nc1ccc(N2CCOCC2)cc1)[C@H]1[C@@H](C(=O)O)C2(O[C@H]1c1ccc(Br)c(Br)c1)C(=O)c1ccccc1C2=O (stereo in doubt; 19) [listing 1 of 2 here] |  | 51 nM |
| O=C(Nc1ccc2c(c1)OCO2)[C@H]1[C@@H](C(=O)O)C2(O[C@H]1c1ccc(Cl)cc1)C(=O)c1ccccc1C2=O | inactive | 7800 nM |
| Cc1cc2c(s1)C(=O)[C@@]1(O[C@@H](c3ccc(Br)c(Br)c3)[C@@H](C(=O)Nc3ccc(N4CCOCC4)cc3)[C@H]1C(=O)O)C2=O | inactive | 460 nM |
| O=C(NCc1ccccc1)[C@H]1[C@@H](C(=O)O)C2(O[C@H]1c1ccc(Cl)c(Cl)c1)C(=O)c1ccccc1C2=O | inactive | 3500 nM |
| CC(=O)c1ccc(NC(=O)[C@H]2[C@@H](C(=O)O)C3(O[C@H]2c2ccc(Cl)c(Cl)c2)C(=O)c2ccccc2C3=O)cc1 | inactive | 380 nM |
| CC(=O)Nc1ccccc1NC(=O)[C@H]1[C@@H](C(=O)O)C2(O[C@H]1c1ccc(Cl)c(Cl)c1)C(=O)c1ccccc1C2=O | inactive | 65000 nM |
| O=C(Nc1ccc(N2CCOCC2)cc1)[C@H]1[C@@H](C(=O)O)C2(O[C@H]1c1ccc(Br)c(Br)c1)C(=O)c1ccccc1C2=O (stereo in doubt; 19) [listing 2 of 2 here] | inactive |  |
| C[C@@H](NC(=O)[C@H]1[C@H]2C(=O)O[C@]3(O)c4ccccc4C(=O)[C@]23O[C@H]1c1ccc(Cl)c(Cl)c1)c1ccccc1 | inactive | 6800 nM |
| O=C(Nc1ccc2c(c1)OCO2)[C@H]1[C@@H](C(=O)O)C2(O[C@H]1c1ccc(Cl)c(Cl)c1)C(=O)c1ccccc1C2=O | inactive | 350 nM |
| O=C(Nc1ccc2c(c1)OCO2)[C@H]1[C@H]2C(=O)O[C@]3(O)c4ccccc4C(=O)[C@]23O[C@H]1c1ccc(Cl)cc1 | inactive | 6600 nM |
| CC(=O)Nc1cccc(NC(=O)[C@H]2[C@@H](C(=O)O)C3(O[C@H]2c2ccc(Cl)c(Cl)c2)C(=O)c2ccccc2C3=O)c1 | inactive | 740 nM |
| O=C(Nc1ccccc1)[C@H]1[C@@H](C(=O)O)C2(O[C@H]1c1ccc(Cl)c(Cl)c1)C(=O)c1ccccc1C2=O | inactive | 680 nM |
| O=C(Nc1ccc(N2CCOCC2)cc1)[C@H]1[C@@H](C(=O)O)C2(O[C@H]1c1ccc(Br)c(Br)c1)C(=O)c1ccccc1C2=O (stereo in doubt; 21) [listing 1 of 2 here] | inactive |  |
| O=C(Nc1ccc(-c2csnn2)cc1)[C@H]1[C@@H](C(=O)O)C2(O[C@H]1c1ccc(Cl)c(Cl)c1)C(=O)c1ccccc1C2=O | inactive | 150 nM |
| O=C(Nc1ccc(N2CCOCC2)cc1)[C@H]1[C@@H](C(=O)O)C2(O[C@H]1c1ccc(Br)c(Br)c1)C(=O)c1ccccc1C2=O (stereo in doubt; 21) [listing 2 of 2 here] |  | 28 nM |
| Cc1cc2c(s1)C(=O)[C@]1(O[C@@H](c3ccc(Br)c(Br)c3)[C@@H](C(=O)Nc3ccc(N4CCOCC4)cc3)[C@H]1C(=O)O)C2=O | inactive | 6 nM |
| CC(=O)Nc1ccc(NC(=O)[C@H]2[C@@H](C(=O)O)C3(O[C@H]2c2ccc(Cl)c(Cl)c2)C(=O)c2ccccc2C3=O)cc1 | inactive | 440 nM |
| O=C(Nc1ccc(N2CCOCC2)cc1)[C@H]1[C@@H](c2ccc(Br)c(Br)c2)OC2(C(=O)c3ccccc3C2=O)[C@H]1C(=O)O | inactive | 15000 nM |
| C[C@@H](NC(=O)[C@H]1[C@@H](c2ccc(Cl)c(Cl)c2)O[C@@]23C(=O)c4ccccc4[C@]2(O)OC(=O)[C@@H]13)c1ccccc1 | inactive | > 75000 nM |
| CC(C)(C)NC(=O)[C@H]1[C@@H](C(=O)O)C2(O[C@H]1c1ccc(Cl)c(Cl)c1)C(=O)c1ccccc1C2=O | inactive | 2100 nM |
| Cc1ccc2c(c1)C(=O)[C@@]1(O[C@@H](c3ccc(Cl)c(Cl)c3)[C@@H](C(=O)Nc3ccc(-c4csnn4)cc3)[C@H]1C(=O)O)C2=O | inactive | 180 nM |
